SMILES strings stand for the structures. Structures can show the parent of a compound that is named as a salt. Where two headings read alike, the source gives them in different places.

Series [1] deals with IgE (reaginic antiserum) PCA reaction. Kind of series: Oral activity in PCA test, IgE. It is filed as in vivo, rat. The settings on record: Rattus norvegicus, IgE, oral. As for the experimental part: (§1) The antiallergy property of the compounds of this invention is evaluated by the passive cutaneous anaphylaxis (PCA) test (Ovary, J. Immun., 81, 355, 1958). In the PCA test, normal animals are injected intradermally (i.d.) with antibodies contained in serum obtained from actively sensitized animals. The animals are then challenged intravenously with antigen mixed with a dye such as Evans' Blue. The increased capillary permeability caused by the antigen-antibody reaction causes the dye to leak from the site of the antibody injection. The test animals are then asphyxiated and the intensity of the reaction determined by measuring the diameter and intensity of the blue coloration on the inner surface of the animals' skin.
The PCA test is a measure of the anti-allergic (especially anti-asthmatic) activity of a compound. Compounds which inhibit a positive PCA test induced by the rat immunochemical counterpart of human immunoglobulin E (IgE), or reagin, are considered to have anti-allergic activity (C. Mota, Ann. N.Y. Acad. Sci., 103, 264 1963). (Reagin is primarily immunoglobulin E [IgE] and is the principal immunoglobulin responsible for allergic asthma, anaphylaxis, hay fever, food sensitivities and certain manifestations of drug sensitivities, although recent evidence ascribes to the IgG class of antibodies a significant role in the mediation of allergic diseases). Such compounds when administered to a sensitized subject, human or animal, prior to the time when the subject comes into contact with antigens or substances to which it is allergic, will prevent the allergic reaction which would otherwise occur. They, therefore, provide a method for the prophylactic treatment of allergy or anaphylactic reactions of a reagin mediated nature.
To put it another way, such compounds block the release of mediators resulting from the antigen-antibody (allergic) reaction as illustrated in the PCA test using rat homocytotropic antibody--a known correlate of human reaginic antibody. Inhibition of reaginic antigen-antibody reactions in rats, the test animal of the PCA test, is regarded as representative of inhibition of human reaginic antigen-antibody reactions which occur during allergic episodes.
The ability of agents to interfere with PCA reactions is measured in male Charles River Wistar rats, 170-210 g. Reaginic antiserum, rich in IgE antibodies, is prepared according to Petillo et al., Int. Arch. Allergy, 44, 309 (1973). Hyperimmune antiserum rich in IgG antibodies to hen egg albumin is prepared according to Orange et al., J. Exptl. Med., 127, 767 (1968). Forty-eight hours prior to antigen challenge, the reaginic antiserum is injected intradermally (i.d.) into the shaved skin of a normal rat's back; 5 hours before challenge the hyperimmune antisera is similarly injected. At a third site 60 mcg. histamine dihydrochloride and 0.5 mcg. serotonin creatinine sulfate are injected i.d. just prior to antigen challenge as a check for antihistaminic, antiserotonin and unspecific types of blockage; the compounds of the instant invention or saline are then administered i.v. and immediately followed by the challenge of 5 mg. egg albumen and 2.5 mg. Evans' Blue dye in saline. In the case of oral administration Evans' Blue dye and egg albumin are given 5 minutes after administration of the drug. Thirty minutes later the animals are asphyxiated using chloroform and the skin of the back removed and reversed for observation. A score is assigned each injection site equal to the product of the diameter of the site in mm. and a grade of 0.1, 0.5, 1, 2, 3 or 4 proportional to intensity of dye coloration. The scores for a given injection site are summed for each group of five animals and compared to the saline treated controls. The difference is expressed as percent blockage due to the compound employed. […]

In series [2] the test system is IgG (hyperimmune antiserum) PCA reaction. Kind of series: Oral activity in PCA test, IgG. The settings on record: Rattus norvegicus. It is filed as in vivo. Here is the method: as §1
The ability of agents to interfere with PCA reactions is measured in male Charles River Wistar rats, 170-210 g. Reaginic antiserum, rich in IgE antibodies, is prepared according to Petillo et al., Int. Arch. Allergy, 44, 309 (1973). Hyperimmune antiserum rich in IgG antibodies to hen egg albumin is prepared according to Orange et al., J. Exptl. Med., 127, 767 (1968). Forty-eight hours prior to antigen challenge, the reaginic antiserum is injected intradermally (i.d.) into the shaved skin of a normal rat's back; 5 hours before challenge the hyperimmune antisera is similarly injected. At a third site 60 mcg. histamine dihydrochloride and 0.5 mcg. serotonin creatinine sulfate are injected i.d. just prior to antigen challenge as a check for antihistaminic, antiserotonin and unspecific types of blockage; the compounds of the instant invention or saline are then administered i.v. and immediately followed by the challenge of 5 mg. egg albumen and 2.5 mg. Evans' Blue dye in saline. In the case of oral administration Evans' Blue dye and egg albumin are given 5 minutes after administration of the drug. Thirty minutes later the animals are asphyxiated using chloroform and the skin of the back removed and reversed for observation. A score is assigned each injection site equal to the product of the diameter of the site in mm. and a grade of 0.1, 0.5, 1, 2, 3 or 4 proportional to intensity of dye coloration. The scores for a given injection site are summed for each group of five animals and compared to the saline treated controls. The difference is expressed as percent blockage due to the compound employed.
Compounds representative of those of the present invention are tested for antiallergy activity by the above-described procedure and the resulting activities are reported as the degree (%) of protection.

The test system of the next series is ethanol-induced ulcer. The series can be described thus: Ethanol-induced rat ulcer assay. It is filed as in vivo. The settings on record: oral, 5 mg./kg.; for % Inhibition in the Ethanol-Induced Rat Ulcer Assay, amides: Table III; for % Inhibition in the Ethanol-Induced Rat Ulcer Assay, acids: Table IV. Here is the method: Alternatively, the effectiveness of the products of this invention as antiulcer agents is determined in an ethanol-induced rat ulcer assay. In this test, overnight fasted male rats are given drug (5 mg./kg.) or water orally fifteen minutes prior to an orally administered dose of absolute ethanol (1.0 ml.). One hour after the ethanol challenge the animals (8/group) are killed and the stomachs examined for the presence of lesions. All drugs were dissolved in dilute NaOH. After sacrifice the abdomen is opened and a locking hemostat placed at the pylorus. 6 ml. of a 4% solution of formaldehyde was injected into the stomach with a gastric feeding tube and a second locking hemostat was used to seal the esophagus. The stomach was removed, opened along the greater curvature and examined for ulceration.
The scoring system used to quantitate the ethanol-induced lesions is given below.
For each group of animals an ulcer index is calculated as follows:
Ulceration Index=(the sum of the scores of the group)×(the sum of the number of ulcers in the group)×(the fraction of the group having any incidence of ulceration).
The percentage inhibition of ulcers is calculated as follows:
% Inhibition=100×[(ulcer index controls)-(ulcer index drug-treated)].div.(ulcer index controls).

Series [3] is described as follows: Plasma levels after repeated daily dosing. It is filed as in vivo. The note with it: after the eighth daily dose of III. Here is the method:
(§2) This is supported by the observations of plasma concentrations of 3 to 7 μg/ml one hour after oral administration of III, 50 to 300 mg/kg.

Series [4] in a line: Oral absorption and plasma concentrations, dogs. It is filed as in vivo, dog. The note with it: after oral administration of III. Here is the method:
as §2

A short description of series [5]: Oral absorption and plasma concentrations, rats. It is filed as in vivo, rat. The note with it: after oral administration of III. As for the experimental part:
as §2

A short description of series [6]: Water solubility and hygroscopicity. It is filed as physicochemical.
Where [7] appears, read: Table I amides, read-out: Oral Activity (% of Protection) in the PCA Test, IgE.
Setting [8] is: Table I amides, read-out: Oral Activity (% of Protection) in the PCA Test, IgG.
Setting [9] is: read-out: Oral Activity (% of Protection) in the PCA Test, IgE.
Setting [10] is: read-out: Oral Activity (% of Protection) in the PCA Test, IgG.
Where [11] appears, read: Table II acids, read-out: Oral Activity (% of Protection) of Acids in the PCA Test, IgE.
Where [12] appears, read: Table II acids, read-out: Oral Activity (% of Protection) of Acids in the PCA Test, IgG.

With `O=C(Nc1nnn[nH]1)c1cnc2sc3c(n2c1=O)CCCCCC3` [Formula I: (CH2)6, N-(5-Tetrazolyl)-1-oxo-1H-cyclooctenothiazolo[3,2-a]pyrimidine-2-carboxamide], the inhibition in vivo at 30 mg/kg in series [1] (setting [7]) was 94%; in series [2] (setting [8]), 57%. For the same compound, the “% Inhibition in the Ethanol-Induced Rat Ulcer Assay, amides” value (“% Inhibition … amides” below) in the series on ethanol-induced ulcer is 45%.
For `CCc1sc2ncc(C(=O)Nc3nnn[nH]3)c(=O)n2c1CC` [Formula I: R1=C2H5, R2=C2H5, N-(5-Tetrazolyl)-1-oxo-1H-6,7-diethylthiazolo[3,2-a]pyrimidine-2-carboxamid], the values for the inhibition in vivo at 30 mg/kg in series [1] (setting [7]) and in series [2] (setting [8]) were 62% and 49%, respectively. The “% Inhibition … amides” value with ethanol-induced ulcer is given as 10%.
With `CCc1cn2c(=O)c(C(=O)Nc3nnn[nH]3)cnc2s1` [Formula I: R1=C2H5, R2=H, N-(5-Tetrazolyl)-1-oxo-1H-6-ethylthiazolo[3,2-a]pyrimidine-2-carboxamide], the inhibition in vivo at 30 mg/kg in series [1] (setting [7]) is 85%; in series [2] (setting [8]) it was 58%. Also, in the series on ethanol-induced ulcer, the “% Inhibition … amides” value was 86%.
Turning to `Cc1sc2ncc(C(=O)Nc3nnn[nH]3)c(=O)n2c1C` [Formula I: R1=CH3, R2=CH3, N-(5-Tetrazolyl)-1-oxo-1H-6,7-dimethylthiazolo[3,2-a]pyrimidine-2-carboxamide], the inhibition in vivo at 3 mg/kg was found to be 55% in series [1] (setting [9]) and 51% in series [2] (setting [10]). In the series on ethanol-induced ulcer, the “% Inhibition … amides” value is 96%.
Regarding `Cc1cn2c(=O)c(C(=O)Nc3nnn[nH]3)cnc2s1` [Formula I: R1=CH3, R2=H, N-(5-Tetrazolyl)-1-oxo-1H-6-methylthiazolo[3,2-a]pyrimidine-2-carboxamide], the inhibition in vivo at 30 mg/kg is 78% in series [1] (setting [7]) and 55% in series [2] (setting [8]). Besides, in the series with ethanol-induced ulcer, the “% Inhibition … amides” value is 72%.
For `Cc1csc2ncc(C(=O)Nc3nnn[nH]3)c(=O)n12` [Formula I: R1=H, R2=CH3, N-(5-Tetrazolyl)-1-oxo-1H-7-methylthiazolo[3,2-a]pyrimidine-2-carboxamide], the inhibition in vivo at 3 mg/kg was found to be 55% in series [1] (setting [9]) and 50% in series [2] (setting [10]). Also, the “% Inhibition … amides” value in the series with ethanol-induced ulcer turned out to be 59%.
On to `O=C(O)c1cnc2sc3c(n2c1=O)CCCC3` [Formula II: (CH2)4, 1-Oxo-1H-cyclohexenothiazolo[3,2-a]pyrimidine-2-carboxylic Acid], for which the inhibition in vivo at 10 mg/kg in series [1] (10 mg./kg., Table II acids, read-out: Oral Activity (% of Protection) of Acids in the PCA Test, IgE) was determined as 55%; in series [2] (10 mg./kg., Table II acids, read-out: Oral Activity (% of Protection) of Acids in the PCA Test, IgG), 39%. For the same compound, the “levels after the eighth daily dose relative to initial dose” value in series [3] lay in the range of 2 to 4 times. Further, the “plasma levels of carboxylic acid metabolite” value in series [4] and in series [5] was “comparable to those of III” throughout. The “% Inhibition in the Ethanol-Induced Rat Ulcer Assay, acids” value (“% Inhibition … acids” below) in the series with ethanol-induced ulcer worked out at 21%.
Turning to `CCc1sc2ncc(C(=O)O)c(=O)n2c1CC` [Formula II: R1=C2H5, R2=C2H5, 1-Oxo-1H-6,7-diethylthiazolo[3,2-a]pyrimidine-2-carboxylic Acid], the inhibition in vivo at 30 mg/kg came out at 41% in series [1] (setting [11]) and 32% in series [2] (setting [12]). Besides, in the series with ethanol-induced ulcer, the “% Inhibition … acids” value was 48%.
For the compound `CCc1cn2c(=O)c(C(=O)O)cnc2s1` [Formula II: R1=C2H5, R2=H, 1-Oxo-1H-6-ethylthiazolo[3,2-a]pyrimidine-2-carboxylic Acid], the figures for the inhibition in vivo at 30 mg/kg in series [1] (setting [11]) and in series [2] (setting [12]) were 45% and 38%, respectively. Moreover, the “% Inhibition … acids” value in the series on ethanol-induced ulcer is listed as 48%.
In the same order, the values of `Cc1sc2ncc(C(=O)O)c(=O)n2c1C` [Formula II: R1=CH3, R2=CH3, 1-Oxo-1H-6,7-dimethylthiazolo[3,2-a]pyrimidine-2-carboxylic Acid] are 0%, 0% and 11%.
As for `Cc1cn2c(=O)c(C(=O)O)cnc2s1` [Formula II: R1=CH3, R2=H, 1-Oxo-1H-6-methylthiazolo[3,2-a]pyrimidine-2-carboxylic Acid], the inhibition in vivo at 30 mg/kg in series [1] (setting [11]) worked out at 12%; in series [2] (setting [12]), 14%. The “% Inhibition … acids” value in the series on ethanol-induced ulcer is 0%.
In the case of `Cc1csc2ncc(C(=O)O)c(=O)n12` [Formula II: R1=H, R2=CH3, 1-Oxo-1H-7-methylthiazolo[3,2-a]pyrimidine-2-carboxylic acid], the inhibition in vivo at 30 mg/kg in series [1] (setting [11]) turned out to be 18%; in series [2] (setting [12]) it was 19%. Besides, the “% Inhibition … acids” value in the series with ethanol-induced ulcer is listed as 27%.
Regarding `O=C(Nc1nnn[nH]1)c1cnc2sc3c(n2c1=O)CCCC3` [sodium salt (trihydrate), sodium N-(5-tetrazolyl)-1-oxo-1H-cyclohexenothiazolo[3,2-a]pyrimidine-2-carboxamide trihydrate], in series [6], the hygroscopicity entry is “non-hygroscopic” and the water solubility result is on record as “good water solubility”.

The record behind these values is patent US4535081A, “Antiallergic and antiulcer 1-oxo-1H-thiazolo[3,2-a]pyrimidine-2-carboxamides and intermediates therefor” (Pfizer Inc., priority 1983, dated 1985).
